Experiment: Pharmacokinetic evaluation in mice, single intragastric administration
Format: in vivo, CD-1 mice (male)
Conditions: 300 mpk, male CD-1 mice, plasma
Procedure: Experimental Purposes: To Test the Pharmacokinetics of the Compound in Mice
CD-1 mice (male), vehicle (0.5% (w/v) methylcellulose 0.5% (v/v) Tween 80 aqueous solution), trifluoroacetate salt of compound 0027.
Animals in groups 1 and 2 were given 5 mg/mL and 30 mg/mL compound by single intragastric administration, respectively, with a dose volume of 10 mL/kg.
The animals were weighed before administration, and the administration volume was calculated according to the body weight.
Whole blood samples (30 μL) were collected at specified times (0.25, 0.5, 1, 2, 4, 6, 8, 24 hours) by saphenous vein collection and the actual time of collection was recorded in the test record. The acceptable error for the collection time points was ±1 minute for time points within 1 hour of administration and ±5% of the theoretical time for other time points.
All blood samples were immediately transferred to labeled commercial centrifuge tubes containing K2-EDTA. After blood samples were collected, the blood samples were centrifugated at 4° C. and 3200 rpm for 10 minutes, and the supernatant plasma was aspirated, and then quickly put into dry ice at a temperature of −20° C. or lower for LC-MS/MS analysis. And the pharmacokinetic parameters were calculated, and experimental result: See Table 5.

Tlast: 24.0 h
Structure (SMILES): COc1cc(OC)c(Cl)c(-c2nc(-c3nc(-c4cn(C)nc4C)cnc3N)cn(C)c2=O)c1
